Literature values in patent publication US5330766A, “Sustained release pharmaceutical composition” (priority 1989, dated 1994).
Counter-ions that a name gives are not always drawn. Like-named read-outs stand apart in the source and are kept apart here.

How the values were obtained:
[1] = not given; remark: listed apart in the source

Row | SMILES | SOLUBILITY (AQUEOUS), in words | pKA ([1]; first or only value given) | other results
1 | O=C(O)c1ccccc1O [Choline salicylate] | very soluble |  | 
2 | CC(N)C(O)c1ccccc1 (stereo not shown) [Phenylpropanolamine hydrochloride] |  | 9 | 
3 | CN(C)CCOC(c1ccc(Cl)cc1)c1ccccn1 (stereo not shown) [Carbinoxamine maleate] |  | 8.1 | 
4 | COc1cc(C(=O)NCc2ccc(OCCN(C)C)cc2)cc(OC)c1OC [Trimethobenzamide hydrochloride] |  | 8.3 | 
5 | C[C@H](CN1CCOCC1)C(C(=O)N1CCCC1)(c1ccccc1)c1ccccc1 [Dextromoramide tartrate] |  | 7.1 | 
6 | CCNC(C)Cc1cccc(C(F)(F)F)c1 (stereo not shown) [Fenfluramine hydrochloride] |  | 9.1 | 
7 | COc1ccc2c3c1O[C@H]1C(=O)CC[C@H]4[C@@H](C2)N(C)CC[C@]314.O=C(O)C(O)C(O)C(=O)O [Hydrocodone bitartrate] |  | 8.3 | 
8 | CN(C)C1C(=O)C(C(N)=O)=C(O)C2(O)C(=O)C3=C(O)c4c(O)cccc4C(C)(O)C3C(O)C12 (stereo not shown) [Oxytetracycline HCl] |  | 3.3 | pKA [1]: 9.1; pKA ([1]; second value): 7.3
9 | CCN(CC)CC#CCOC(=O)C(O)(c1ccccc1)C1CCCCC1 (stereo not shown) [Oxybutynin hydrochloride] |  | 6.96 | 
10 | CC(C)(S)[C@@H](N)C(=O)O [Penicillamine] |  | 1.8 | 
11 | CN(C)CCN(Cc1ccccc1)c1ccccn1 [Tripelennamine citrate] |  | 3.9 | pKA ([1]; second value): 9.0
12 | O=C1NC(=O)C(c2ccccc2)(c2ccccc2)N1 [Phenytoin sodium] | soluble |  | 
13 | Cc1onc(-c2ccccc2Cl)c1C(=O)N[C@@H]1C(=O)N2[C@@H]1SC(C)(C)[C@@H]2C(=O)O [Cloxacillin sodium] |  | 2.7 | 
14 | CC(COc1ccccc1)N(CCCl)Cc1ccccc1 (stereo not shown) [Phenoxybenzamine hydrochloride] |  | 4.4 | 
15 | OCCOCCN1CCN(C(c2ccccc2)c2ccc(Cl)cc2)CC1 (stereo not shown) [Hydroxyzine hydrochloride] |  | 2.6 | pKA ([1]; second value): 7.0
16 | CCC(C)C1(CC)C(=O)NC(=O)NC1=O (stereo not shown) [Butabarbital sodium] | freely soluble | 7.9 | 
17 | COC(=O)C(c1ccccc1)C1CCCCN1 (stereo not shown) [Methylphenidate hydrochloride] | freely soluble | 8.8 | 
18 | CN1CCC(CN2c3ccccc3Sc3ccccc32)C1 (stereo not shown) [Methdilazine HCl] |  | 7.5 | 
19 | CC(C)(C)NC[C@H](O)COc1nsnc1N1CCOCC1 [Timolol maleate] | freely soluble | 9 | 
20 | COc1cc2c(c(OC)c1OC)-c1ccc(OC)c(=O)cc1[C@@H](NC(C)=O)CC2 [Colchicine] |  | 1.7 | pKA ([1]; second value): 12.4
21 | C[C@H]1[C@H](c2ccccc2)OCCN1C [Phendimetrazine tartrate] | freely soluble | 7.6 | 

Row | SMILES | SOLUBILITY (AQUEOUS), in words | pKA ([1]; first or only value given) | other results
22 | Nc1nc2c(c(=O)[nH]1)N(C=O)C(CNc1ccc(C(=O)N[C@@H](CCC(=O)O)C(=O)O)cc1)CN2 (stereo partly shown) [Leucovorin calcium] | very soluble | 3.1 | pKA [1]: 10.4; pKA ([1]; second value): 4.8
23 | CCCC(CCC)C(=O)O[C@H]1C[C@H]2CC[C@@H](C1)[N+]2(C)C [Anisotropine methylbromide] | soluble |  | 
24 | C[N+]12CCC(CC1)C(OC(=O)C(O)(c1ccccc1)c1ccccc1)C2 (stereo not shown) [Clidinium bromide] | soluble |  | 
25 | CN1CCCC1c1cccnc1 (stereo not shown) [Nicotine] | soluble |  | 
26 | C=CCC1(C(C)CCC)C(=O)NC(=O)NC1=O (stereo not shown) [Secobarbital sodium] |  | 7.5 | 
27 | COc1ccc(Cc2nccc3cc(OC)c(OC)cc23)cc1OC [Papaverine hydrochloride] |  | 6.4 | 
28 | CC(C)N(CCC(C(N)=O)(c1ccccc1)c1ccccn1)C(C)C (stereo not shown) [Disopyramide phosphate] |  | 8.4 | 
29 | C[C@@H](Cc1ccccc1)N(C)Cc1ccccc1 [Benzphetamine hydrochloride] |  | 6.6 | 
30 | CCOC(=O)C1(c2ccccc2)CCN(C)CC1 [Pethidine hydrochloride] | very soluble |  | 
31 | NNC(=O)c1ccncc1 [Isoniazid] |  |  | pKA [1]: 10.8; pKA ([1]; second value): 3.5
32 | CC(C)[N+](C)(CCOC(=O)C1c2ccccc2Oc2ccccc21)C(C)C [Propantheline bromide] | very soluble | 9.0 | 
33 | CC1NCCOC1c1ccccc1 (stereo not shown) [Phenmetrazine hydrochloride] |  | 8.4 | 
34 | CO[C@@H]1[C@@H](OC(N)=O)[C@@H](O)[C@H](Oc2ccc3c(O)c(NC(=O)c4ccc(O)c(CC=C(C)C)c4)c(=O)oc3c2C)OC1(C)C [Novobiocin Sodium] |  |  | pKA ([1]; second value): 9.1
35 | C[n+]1ccccc1/C=N/O [Pralidoxime chloride] |  | 8 | 
36 | CCC1(C)CC(=O)NC1=O (stereo not shown) [Ethosuximide] |  | 9.0 | 
37 | NCCCCCC(=O)O [Aminocaproic acid] |  | 4.43 | pKA ([1]; second value): 10.73
38 | CCC1(CC)C(=O)NCC(C)C1=O (stereo not shown) [Methyprylon] |  | 12 | 
39 | CN1CCC(=C2c3ccccc3CCc3cccnc32)CC1 [Azatadine maleate] | very soluble | 9.3 | 
40 | CC(C)(S)[C@@H](N)C(=O)O [Penicillamine HCl] |  |  | pKA ([1]; first or only value given, HCl): 8.0; pKA ([1]; second value): 10.8
41 | CCCCCCCCCCCCCCCC(=O)OC1C(SC)OC(C(NC(=O)C2CC(CCC)CN2C)C(C)Cl)C(O)C1O (stereo not shown) [Clindamycin Palmitate HCl] | freely soluble |  | 
